Experimental data as given in PMC9231089, “Sorafenib Chemosensitization by Caryophyllane Sesquiterpenes in Liver, Biliary, and Pancreatic Cancer Cells: The Role of STAT3/ABC Transporter Axis” (Pharmaceutics, 2022).
Counter-ions that a name gives are not always drawn.

How the values were obtained:
[1] = system: Mz-ChA-1; assay: Combination assay with sorafenib (MTT), Mz-ChA-1; type: cell-based, human;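 as to increase of sorafenib cytotoxicity in combination: percent increase of sorafenib cell viability inhibition versus sorafenib alone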
Description: (§1) Suitable vehicle controls were also included.
(§2) The type of interaction (synergistic, additive, or antagonistic) among sorafenib and test substances or positive controls was evaluated by measuring the reversal ratio value (RR), combination index (CI), and isobolographic analysis (IB), as previously described.

[2] = system: HepG2; assay: Combination assay with sorafenib (MTT), HepG2; type: cell-based, human; conditions: for increase of sorafenib cytotoxicity in combination: verapamil/MK571 1 µg/mL or sesquiterpenes 10 µg/mL;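 as to increase of sorafenib cytotoxicity in combination: percent increase of sorafenib cell viability inhibition versus sorafenib alone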
Description: as §1, §2

[3] = system: phospho(Tyr705)-STAT3; assay: Western blotting of STAT3 phosphorylation in Bx-PC3 cells; type: cell-based, human; conditions: for increase of STAT3 phosphorylation at tyrosine 705: substance alone, sorafenib and sesquiterpenes 10 μg/mL, verapamil/MK571 1 μg/mL, normalized to total STAT3; for reduction of phospho(Tyr705)-STAT3 with respect to sorafenib: substance in combination with sorafenib 10 μg/mL
Description: as §1
Confluent cells were seeded in 6-well plates (5 × 10^5 cells/well), treated as described above, then harvested by centrifugation and washed in PBS. After lysis with a suitable buffer, the Western blotting analysis was carried out, according to previously published methods. […] The levels of phospho(Tyr705)-STAT3 were normalized against total STAT3 ones.

[4] = system: Bx-PC3; assay: Combination assay with sorafenib (MTT), Bx-PC3; type: cell-based, human;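 as to increase of sorafenib cytotoxicity in combination: percent increase of sorafenib cell viability inhibition versus sorafenib alone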
Description: as §1, §2

[5] = system: Bx-PC3 cells; assay: Wound healing assay (cell migration); type: cell-based, human; conditions: for increase of wound area: substance in combination with sorafenib 10 µg/mL, reference and time not stated
Description: To evaluate the effect of caryophyllane sesquiterpenes, both alone and in combination with sorafenib, on the cell migration rate, the wound healing assay was performed. Bx-PC3 cells were seeded in 24-well plate at a density of 2.5 × 10^5 cells/well. After 24 h, the wound was created by scratching the well bottom with a 100 μL pipette tip, then the cells were treated under the scheduled conditions and images were captured at 0, 4, and 72 h using a Cytation 1 Cell Imaging Multi-Mode Reader. […] Results were expressed as wound area percentage with respect to that of the same well at zero time. The positive controls were also included.

[6] = system: MRP1; assay: Immunofluorescence analysis in Bx-PC3 cells, MRP1; type: cell-based, human; conditions: substance 10 µg/mL in combination with sorafenib 10 µg/mL
Description: as §1
(§3) The analysis was performed according to previously published methods. Confluent cells were seeded in 24-well plates (2 × 10^4 cells/well), allowed to adhere overnight, then treated as described above. After treatment, cells were fixed in pure methanol and washed with 4% bovine serum albumin (BSA) and PBS + Tween 20 (PBS-T) for 1 h. […] The expression and localization of Pgp, MRP1, and MRP2 pumps into cells were analyzed by using a Cytation 1 Cell Imaging Multimode Reader (Biotech, USA).

[7] = system: MDR1; assay: RT-qPCR gene expression in Bx-PC3 cells, MDR1
Description: (§5) Confluent cells were treated with the test substances, both alone or in combination with the anticancer drug, for 4 h, then washed and incubated for a further 72 h (Figure 1), according to previously published protocols [20]. […] Suitable vehicle controls were also included.
(§6) The results of mRNA abundance for the targeted genes in each sample were normalized on the basis of GAPDH (Bio-Rad, Hercules, CA, USA) mRNA. Data are expressed as 2^−ΔCt, calculated using the CFX Manager software (Bio-Rad).

[8] = system: MRP2; assay: RT-qPCR gene expression in Bx-PC3 cells, MRP2; conditions: substance in combination with sorafenib, given for MRP1 and MRP2 together
Description: as §5, §6

[9] = system: HepG2; assay: MTT cytotoxicity assay, substances alone, HepG2; type: cell-based, human; conditions: HepG2
Description: as §1
(§4) The effect of the treatments on cell viability was measured by the MTT assay as previously described. A higher than 30% reduction of cell viability was considered as a significant cytotoxic effect.

[10] = system: noncancerous H69 cholangiocytes; assay: MTT cytotoxicity assay (tolerability), substances alone, H69; type: cell-based, human; conditions: Homo sapiens; H69 noncancerous cholangiocytes; substance alone; 4 h exposure + 72 h recovery; read-out: IC50 (CL)
Description: as §1, §4

[11] = system: Pgp; assay: Immunofluorescence analysis in Bx-PC3 cells, Pgp; type: cell-based, human
Description: as §1, §3

[12] = system: MRP1/2; assay: ABC-mediated drug efflux assay, calcein-AM accumulation, HepG2 cells; type: cell-based, human; conditions: 2 h pre-treatment, sesquiterpenes 10 μg/mL, vs control
Description: (§7) Fluorescence was measured at excitation and emission wavelengths of 485 nm and 535 nm for both probes, using a Cytation 1 Cell Imaging Multimode Reader (Biotech, Santa Clara, CA, USA). Results were normalized to viable cells and expressed as percentage of the negative control.

[13] = system: Mz-ChA-1; assay: MTT cytotoxicity assay, substances alone, Mz-ChA-1; type: cell-based, human; conditions: Mz-ChA-1
Description: as §1, §4

[14] = system: MRP1/2; assay: ABC-mediated drug efflux assay, calcein-AM accumulation, Mz-ChA-1 cells; type: cell-based, human; conditions: 2 h pre-treatment, sesquiterpenes 10 μg/mL, vs control
Description: as §7

[15] = system: MRP1/2; assay: ABC-mediated drug efflux assay, calcein-AM accumulation, Bx-PC3 cells; type: cell-based, human; conditions: 2 h pre-treatment, sesquiterpenes 10 μg/mL, MK571 1 μg/mL, vs control
Description: as §7

[16] = system: Bx-PC3; assay: MTT cytotoxicity assay, substances alone, Bx-PC3; type: cell-based, human
Description: as §1, §4

[17] = system: noncancerous H69 cholangiocytes; assay: Combination assay with sorafenib (MTT), tolerability in H69; type: cell-based, human; conditions: sesquiterpene 10 μg/mL combined with sorafenib (protective effect at sorafenib 10 μg/mL)
Description: as §1, §2

[18] = system: MRP2; assay: Immunofluorescence analysis in Bx-PC3 cells, MRP2; type: cell-based, human
Description: as §1, §3

[19] = system: MRP1; assay: RT-qPCR gene expression in Bx-PC3 cells, MRP1; type: cell-based, human; conditions: substance in combination with sorafenib, given for MRP1 and MRP2 together
Text: as §1

[20] = design: method as in PMID 33081075; conditions: European Food Safety Authority; cited from earlier work

COc1ccc(CCN(C)CCCC(C#N)(c2ccc(OC)c(OC)c2)C(C)C)cc1OC (centres unmarked) [Verapamil, verapamil hydrochloride, reference compound]
reduction of sorafenib IC50 in the presence of the substance [1]: 1.5 fold
reduction of sorafenib IC50 in the presence of the substance [2]: approximately 3 fold
increase of STAT3 phosphorylation at tyrosine 705 [3]: 1.1 fold
reduction of phospho(Tyr705)-STAT3 with respect to sorafenib [3]: lower reduction
reduction of sorafenib IC50 in the presence of the substance [4]: ~2 fold
increase of wound area [5]: lowered the anti-migration effect of sorafenib

C=C1CC/C=C(\C)CC[C@@H]2[C@@H]1CC2(C)C [β-Caryophyllene, β-caryophyllene]
reduction of MRP1 expression with respect to sorafenib [6]: 1.8 fold
reduction of sorafenib IC50 in the presence of the substance [1]: approximately 1.7 fold
combination index (CI) with sorafenib ([1]; CI lower than 1 = synergistic): 0.74
increase of sorafenib cytotoxicity in combination ([1]; sorafenib 10 µg/mL, verapamil/MK571 1 µg/mL or sesquiterpenes 10 µg/mL): 19%
increase of sorafenib cytotoxicity in combination ([1]; sorafenib 50 µg/mL, sesquiterpenes 10 µg/mL): 17%
reduction of sorafenib IC50 in the presence of the substance [2]: approximately 2.9 fold
combination index (CI) with sorafenib ([2]; CI lower than 1 = synergistic): 0.47
increase of sorafenib cytotoxicity in combination ([2]; sorafenib 1 µg/mL): 5%
increase of sorafenib cytotoxicity in combination ([2]; sorafenib 10 µg/mL): approximately 33%
increase of MDR1 gene expression with respect to control ([7]; substance alone, 4 h exposure + 72 h recovery): 2.7 fold
downregulation of MDR1 gene with respect to sorafenib alone ([7]; substance in combination with sorafenib): 1.9 fold
reduction of MRP2 gene expression [8]: 4 fold
IC50 higher than that of sorafenib [9]: 1.6 fold
CC50 [10]: 67 µg/mL
increase of STAT3 phosphorylation at tyrosine 705 [3]: approximately 3 fold
reduction of phospho(Tyr705)-STAT3 with respect to sorafenib [3]: 2.1 fold
effect on Pgp expression (immunofluorescence) ([11]; substance alone, sorafenib and sesquiterpenes 10 µg/mL, verapamil 1 µg/mL): did not affect
reduction of Pgp expression compared to control ([11]; substance in combination with sorafenib 10 μg/mL): ~1.9 fold
increase of calcein-AM accumulation [12]: 1.2 fold
IC50 ([13]; Homo sapiens, substance alone, 4 h exposure + 72 h recovery): 62.7 µg/mL
IC50 lower with respect to sorafenib [13]: approximately 1.2 fold
higher cytotoxicity with respect to β-caryophyllene oxide [13]: approximately 1.5 fold
inhibition of cell viability ([13]; 50 µg/mL): 35%
inhibition of cell viability ([13]; 250 µg/mL): 96%
increase of calcein-AM accumulation [14]: 1.3 fold
increase of calcein-AM accumulation [15]: 1.9 fold
IC50 higher than that of sorafenib [16]: comparable
higher cytotoxicity with respect to β-caryophyllene oxide [16]: ~1.8 fold
inhibition of cell viability ([16]; 50 µg/mL): 70%
inhibition of cell viability ([16]; 250 µg/mL): 95%
IC50 ([16]; Homo sapiens, BXPC-3, substance alone, 4 h exposure + 72 h recovery): 36.3 µg/mL
effect on sorafenib cytotoxicity in noncancerous cells [17]: slight protective effects
reduction of MRP2 expression with respect to sorafenib ([18]; substance 10 µg/mL in combination with sorafenib 10 µg/mL): 1.3 fold
increase of MRP2 expression (immunofluorescence) ([18]; substance alone, 10 µg/mL): 1.4 fold
reduction of MRP1 gene expression [19]: 4 fold
reduction of sorafenib IC50 in the presence of the substance [4]: 5 fold
combination index (CI) with sorafenib ([4]; CI lower than 1 = synergistic): 0.46
increase of sorafenib cytotoxicity in combination ([4]; sesquiterpenes 10 µg/mL, sorafenib concentration not stated (Figure 3F)): 56%
considered safe up to (approved as flavoring) [20]: ≤ 222 mg/kg/die
wound area / cell migration after 72 h ([5]; substance alone, sesquiterpenes 10 µg/mL, verapamil/MK571 1 µg/mL): almost complete closure of wound area
increase of wound area [5]: ~4.1 fold
